The source of these data is PubChem BioAssay AID1648 (Sanford-Burnham Center for Chemical Genomics, 2009).

Active and inactive are the calls of the source. No rule for the calls is given here.

Broadly, the Kd is the constant that tells how readily two partners part at equilibrium.

This experiment deals with Serine/threonine-protein kinase mTOR (Homo sapiens) (UniProt P42345). The experiment can be described thus: mTOR FRB domain ligand binding – biophysical, NMR (AID 1648). The settings on record: NMR binding to FRB domain, chemical shift.
Chain of Serine/threonine-protein kinase mTOR (Homo sapiens) (P42345 2015-2114): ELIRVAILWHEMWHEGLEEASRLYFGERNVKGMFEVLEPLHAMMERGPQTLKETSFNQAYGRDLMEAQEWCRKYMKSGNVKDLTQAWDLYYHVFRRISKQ
On to `O=c1/c(=C/c2cccs2)sc2ncnn12`, for which the Kd was > 4 mM (inactive).

Take `CNC(=O)Oc1ccc2c(c1)[C@]1(C)CCN(C)[C@@H]1N2C`: the Kd is > 4 mM (inactive).

Take `COc1cc([C@@H]2c3cc4c(cc3[C@H](OC(C)=O)[C@H]3COC(=O)[C@@H]23)OCO4)cc(OC)c1OC`: the Kd was > 4 mM (inactive).

Regarding `O=C1Nc2ccccc2C12OCCO2`, the Kd was > 4 mM (inactive).

On to `CC(=O)Nc1cccs1`, for which the Kd was > 4 mM (inactive).

On to `CC(=O)Nc1sccc1C(N)=O`, for which the Kd was > 4 mM (inactive).

For the compound `CC1CCN(S(=O)(=O)N(C)C)CC1`, the Kd was > 4 mM (inactive).

As for `Cc1cc(C)n2nc(SCC(=O)c3ccccc3)nc2n1`, the Kd is > 4 mM (inactive).

As to `O=c1ccc2c([nH]1)CCCC2`, the Kd was > 4 mM (inactive).

On to `Cc1cc(OC(=O)c2ccco2)c([N+](=O)[O-])c(=O)[nH]1`, for which the Kd was > 4 mM (inactive).

For `O=C(Nc1ccccn1)c1cc(-n2cnnc2)ccc1Cl`, the Kd was > 4 mM (inactive).

In the case of `O=C1CC[C@]23/C=C/C(=O)NCCCCNCCCNC(=O)/C=C/c4ccc(c2c4)O[C@@H]3C1`, the Kd is > 4 mM (inactive).

Turning to `O=C(O)CCn1c(=O)oc2ccccc21`, the Kd is > 4 mM (inactive).

Turning to `C/C=C(\C)C(=O)OC1[C@@H]2C=C3C(CC[C@]4(C)C3CC(=O)O[C@H]4c3ccoc3)C(C)(C2=O)[C@@H](C(O)C(=O)OC)C1(C)C` (stereo partly specified), the Kd is > 4 mM (inactive).

Consider `NC(=O)C1CCN(C(=S)c2cccs2)CC1`, for which the Kd was > 4 mM (inactive).

As to `O=C(COc1ccccc1Cl)N1CCCC1`, the Kd was > 4 mM (inactive).

As for `O=C1CC(=O)N(c2ccccc2F)C(=S)N1`, the Kd was > 4 mM (inactive).

Turning to `Nc1ccc2ncsc2c1`, the Kd is > 4 mM (inactive).

On to `CC(O)c1ccc(C(C)O)cc1` (stereo unspecified), for which the Kd is > 4 mM (inactive).

Regarding `CCNC(CC(=O)Nc1cccc([N+](=O)[O-])c1)C(=O)O` (stereo unspecified), the Kd was > 4 mM (inactive).

Consider `Cc1nnc(SCC(=O)N2CCc3ccccc32)s1`, for which the Kd was > 4 mM (inactive).

Turning to `CC(=O)OC1CC[C@@]2(C)C(CCC3C2CC[C@]2(C)C(C4=CC(=O)OC4)C(OC(C)=O)CC32O)C1` (stereo partly specified), the Kd was > 4 mM (inactive).

On to `Cc1noc(C)c1C(=O)N1CCc2ccccc2C1`, for which the Kd was > 4 mM (inactive).

With `N/N=C1\CCCc2c1no[n+]2[O-]`, the Kd is > 4 mM (inactive).

Consider `Cn1ccc(NC(=S)Nc2cccc([N+](=O)[O-])c2)n1`, for which the Kd was > 4 mM (inactive).

On to `Cc1ccc(N2NC(=O)CC2=O)cc1C`, for which the Kd was > 4 mM (inactive).

For the compound `C[C@H]1[C@H](C)CC[C@]2(CO)CC[C@]3(C)C(=CCC4[C@@]5(C)CC[C@H](O)C(C)(C)C5CC[C@]43C)[C@H]12` (stereo partly specified), the Kd is > 4 mM (inactive).

Take `COc1ccccc1NC(C)=O`: the Kd was > 4 mM (inactive).

For `O=C(Nc1ccon1)c1ccc(Cl)s1`, the Kd was > 4 mM (inactive).

As for `O=C1CCc2ccccc2CN1`, the Kd was > 4 mM (inactive).

As to `CC12CN(CC#N)CC(C)(CN(CC#N)C1)C2=O`, the Kd is > 4 mM (inactive).

In the case of `CCN1CCC(=NO)CC1`, the Kd is > 4 mM (inactive).

Consider `O=C(O)c1sccc1-n1cccc1`, for which the Kd was > 4 mM (inactive).

As to `NCc1oc(-c2ccccc2)cc1C(=O)O`, the Kd was > 4 mM (inactive).

For `CCNCC(O)c1ccc([N+](=O)[O-])cc1` (stereo unspecified), the Kd was > 4 mM (inactive).

Consider `O=C(NCc1ccccn1)c1ccc(Br)s1`, for which the Kd was > 4 mM (inactive).

On to `CC(=O)c1cccc(NC(=O)N2CCc3ccccc3C2)c1`, for which the Kd was > 4 mM (inactive).

With `NC1CN2CCC1CC2` (stereo unspecified), the Kd is > 4 mM (inactive).

With `COc1cc(S(=O)(=O)N(C)C)ccc1F`, the Kd is > 4 mM (inactive).

Turning to `NC(=O)c1oc2ccccc2c1N`, the Kd was > 4 mM (inactive).

Regarding `NC(=O)c1ccsc1NC(=O)c1ccccc1[N+](=O)[O-]`, the Kd is > 4 mM (inactive).

Regarding `COC(=O)[C@H]1[C@H]2C[C@H]3c4[nH]c5ccccc5c4CCN3C[C@H]2CC[C@@H]1O`, the Kd was > 4 mM (inactive).

Take `O=C(CSc1ccccc1)N1CCC2(CC1)OCCO2`: the Kd is > 4 mM (inactive).

With `CC(C)(C)c1ccc(SCC(N)=O)cc1`, the Kd is > 4 mM (inactive).

As to `O=C(NCc1cccs1)c1ccncc1`, the Kd was > 4 mM (inactive).

In the case of `COC(=O)c1ccc(Cl)c(NC(C)=O)c1`, the Kd is > 4 mM (inactive).

For `O=C(O)CCC1=C2c3ccccc3CCN2C(=O)CC1`, the Kd is > 4 mM (inactive).

With `CC1=C(C(N)=O)C(c2ccco2)C(C(N)=O)=C(C)N1`, the Kd is > 4 mM (inactive).

Regarding `COc1ccc(-c2nnsc2N)cc1`, the Kd is > 4 mM (inactive).

`O=C(O)c1ccc(NC(=O)c2cccs2)cc1`: the Kd is > 4 mM (inactive).

In the case of `COc1cnn(Cc2ccccc2)c(=O)c1Cl`, the Kd is > 4 mM (inactive).

Take `NC(=O)c1ccc(-c2csnn2)cc1`: the Kd is > 4 mM (inactive).

In the case of `O=C(Nc1ccccc1)N1CCOCC1`, the Kd is > 4 mM (inactive).

Consider `CC1(C)C=Cc2cc3ccc(=O)oc3cc2O1`, for which the Kd was > 4 mM (inactive).

`O=C(c1ccncc1)c1ccc(Br)cc1`: the Kd was > 4 mM (inactive).

For `COc1cccc(NC(=O)c2nc3ncccn3n2)c1`, the Kd was > 4 mM (inactive).

For the compound `O=C1c2ccc(F)cc2C(=O)N1CO`, the Kd was > 4 mM (inactive).

Turning to `CNC(=O)C1CC(=O)N(c2ccc(O)cc2)C1` (stereo unspecified), the Kd is > 4 mM (inactive).

Regarding `CN(C)c1ccc(NC(=O)CC(C(=O)O)N(C)C)cc1` (stereo unspecified), the Kd was > 4 mM (inactive).

As for `Clc1ccc2c(N3CCNCC3)ccnc2c1`, the Kd was > 4 mM (inactive).

`CCSc1nnc2[nH]c(=O)cc(C)n12`: the Kd was > 4 mM (inactive).

In the case of `Cc1ccc(C(=O)CS(C)(=O)=O)cc1`, the Kd is > 4 mM (inactive).

Take `Cc1cc(C(=O)N2CCN(S(C)(=O)=O)CC2)cs1`: the Kd was > 4 mM (inactive).

For the compound `COc1ccc2c(c1)C(NC(C)=O)C(=O)N2C` (stereo unspecified), the Kd is > 4 mM (inactive).

As to `Cc1ccc(CCNc2ccccc2)c[n+]1[O-]`, the Kd is > 4 mM (inactive).

Take `O=C1C2C3C=CC(C3)C2C(=O)N1CCO` (stereo unspecified): the Kd is > 4 mM (inactive).

As for `COc1cc([C@@H]2c3cc4c(cc3[C@H](O)[C@H]3COC(=O)[C@H]23)OCO4)cc(OC)c1OC`, the Kd is > 4 mM (inactive).

Take `COC(=O)c1ccc(NC(=O)CC2NCCNC2=O)cc1` (stereo unspecified): the Kd was > 4 mM (inactive).

Consider `O=C1NC(=O)C(c2ccccc2)C(=O)N1`, for which the Kd is > 4 mM (inactive).

As for `O=C(OC[C@H]1O[C@H](OC(=O)c2cc(O)c(O)c(OC(=O)c3cc(O)c(O)c(O)c3)c2)[C@H](OC(=O)c2cc(O)c(O)c(OC(=O)c3cc(O)c(O)c(O)c3)c2)[C@@H](OC(=O)c2cc(O)c(O)c(OC(=O)c3cc(O)c(O)c(O)c3)c2)[C@@H]1OC(=O)c1cc(O)c(O)c(OC(=O)c2cc(O)c(O)c(O)c2)c1)c1cc(O)c(O)c(OC(=O)c2cc(O)c(O)c(O)c2)c1`, the Kd is > 4 mM (inactive).

On to `O=C(C1CCCCC1)N1CCN(c2ccccc2F)CC1`, for which the Kd was > 4 mM (inactive).
